Experimental data published in patent US11072598B2, “Somatostatin modulators and uses thereof” (CRINETICS PHARMACEUTICALS, INC., priority 2017, dated 2021).
pEC50: −log10 of the molar value.

molecular target: T1, human somatostatin receptor subtype 2 (Homo sapiens, UniProt P30874); experiment: cAMP functional assay for SSTR2 agonists; format: cell-based; conditions: inhibition of cAMP activities via human SST2 receptor (SSTR2), CHO-K1 cells; read-out: EC50
T1 construct: expressed in transfected cells
Description: General overview: All five SSTR subtypes are Gi coupled G-protein coupled receptors (GPCRs) that lead to decreases in intracellular cyclic AMP (cAMP) when activated by an agonist. Therefore, measurement of intracellular cAMP levels can be used to assess whether compounds of the invention are agonists of SSTR subtypes (John Kelly, Troy Stevens, W. Joseph Thompson, and Roland Seifert, Current Protocols in Pharmacology, 2005, 2.2.1-2.2). One example of an intracellular cAMP assay is described below. cAMP assay protocol:
Four days prior to the assay, 5,000 Chinese hamster ovary cells (CHO-K1, ATCC #CCL-61) stably expressing the human somatostatin receptor subtype 2 are plated in each well of a 96-well tissue culture-treated plate in Ham's F12 growth media (ThermoFisher #10-080-CM) supplemented with 10% donor bovine serum (Gemini Bio-Products #100-506), 100 U/mL penicillin; 100 ug/mL streptomycin; 2 mM L-glutamine (Gemini Bio-Products #400-110) and 0.2 mg/mL hygromycin B (GoldBio #31282-04-9). The cells are cultured at 37° C., 5% CO2 and 95% humidity. On the day of the assay, the media is aspirated and the cells are treated with 50 μL of 1.6 μM NKH477 (Sigma #N3290) plus various dilutions of compounds of the invention in assay buffer [1× Hank's Balanced Salt Solution (ThermoFisher #SH3058802), 0.5 mM HEPES pH 7.4, 0.1% bovine serum albumin, 0.2 mM 3-Isobutyl-1-methylxanthine (IBMX, VWR #200002-790)]. The cells are incubated for 20 minutes at 37° C. […] The cells are treated with 50 μL of lysis buffer (HRTF cAMP kit, Cisbio). The lysate is transferred to 384-well plates and cAMP detection and visualization antibodies are added and incubated for 1-24 hours at room temperature. The time-resolved fluorescent signal is read with a Tecan M1000Pro multiplate reader. The intracellular cAMP concentrations are calculated by regression to a standard curve and are plotted vs. the concentration of the compounds of the invention and the EC50 of the compounds are calculated using standard methods. All data manipluations are in GraphPad Prism v6.

T1 sequence (P30874 whole entry): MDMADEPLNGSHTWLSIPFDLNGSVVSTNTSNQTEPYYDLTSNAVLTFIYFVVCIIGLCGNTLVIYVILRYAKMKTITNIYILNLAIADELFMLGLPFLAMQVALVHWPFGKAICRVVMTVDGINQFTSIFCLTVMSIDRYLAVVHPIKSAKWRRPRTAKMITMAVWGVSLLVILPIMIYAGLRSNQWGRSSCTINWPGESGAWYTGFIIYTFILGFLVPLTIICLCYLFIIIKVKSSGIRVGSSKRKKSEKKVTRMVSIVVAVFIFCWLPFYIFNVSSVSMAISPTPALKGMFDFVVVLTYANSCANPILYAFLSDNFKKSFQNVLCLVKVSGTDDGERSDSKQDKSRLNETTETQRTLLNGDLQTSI

Row | SMILES | pEC50
1 | N#CCOc1cc(F)cc2nc(-c3c(N)ncc(-c4cc(F)cc(Cl)c4)c3N3CCC(N)CC3)[nH]c12 [Compound 1-87, 2-({2-[2-amino-4-(4-aminopiperidin-1-yl)-5-(3-chloro-5-fluorophenyl)pyridin-3-yl]-5-fluoro-1H-1,3-benzodiazol-7-yl}oxy)acetonitrile] | > 8.00
2 | N#CCOc1cc(F)c2[nH]c(-c3c(N)ncc(-c4cc(F)cc(Cl)c4)c3N3CCC(N)CC3)nc2c1 [Compound 1-88, 2-({2-[2-amino-4-(4-aminopiperidin-1-yl)-5-(3-chloro-5-fluorophenyl)pyridin-3-yl]-7-fluoro-1H-1,3-benzodiazol-5-yl}oxy)acetonitrile] | > 8.00
3 | CNc1ncc(-c2cc(C)cc(F)c2)c(N2CCC(N)CC2)c1-c1nc2cc(C#N)cc(F)c2[nH]1 [Compound 1-89, 2-[4-(4-aminopiperidin-1-yl)-5-(3-fluoro-5-methylphenyl)-2-(methylamino)pyridin-3-yl]-7-fluoro-1H-1,3-benzodiazole-5-carbonitrile] | > 8.00
4 | COc1cc(F)cc2nc(-c3c(N)ncc(-c4cc(F)cc(Cl)c4)c3N3CCC(N)CC3)[nH]c12 [Compound 1-90, 4-(4-aminopiperidin-1-yl)-5-(3-chloro-5-fluorophenyl)-3-(5-fluoro-7-methoxy-1H-1,3-benzodiazol-2-yl)pyridin-2-amine] | > 8.00
5 | COc1cc(F)cc2nc(-c3c(N)ncc(-c4ccc(F)c(C)c4)c3N3CCC(N)CC3)[nH]c12 [Compound 1-91, 4-(4-aminopiperidin-1-yl)-5-(4-fluoro-3-methylphenyl)-3-(5-fluoro-7-methoxy-1H-1,3-benzodiazol-2-yl)pyridin-2-amine] | > 8.00
6 | COc1cc(F)cc2nc(-c3c(N)ncc(-c4cccc(Cl)c4)c3N3CCC(N)CC3)[nH]c12 [Compound 1-92, 4-(4-aminopiperidin-1-yl)-5-(3-chlorophenyl)-3-(5-fluoro-7-methoxy-1H-1,3-benzodiazol-2-yl)pyridin-2-amine] | > 8.00
7 | COc1cc(F)cc2nc(-c3c(N)ncc(-c4cccc(C)c4)c3N3CCC(N)CC3)[nH]c12 [Compound 1-93, 4-(4-aminopiperidin-1-yl)-3-(5-fluoro-7-methoxy-1H-1,3-benzodiazol-2-yl)-5-(3-methylphenyl)pyridin-2-amine] | > 8.00
8 | COc1cc(Cl)cc2nc(-c3c(N)ncc(-c4cc(C)cc(F)c4)c3N3CCC(N)CC3)[nH]c12 [Compound 1-94, 4-(4-aminopiperidin-1-yl)-3-(5-chloro-7-methoxy-1H-1,3-benzodiazol-2-yl)-5-(3-fluoro-5-methylphenyl)pyridin-2-amine] | > 8.00
9 | Cc1cc(F)cc(-c2cnc(O)c(-c3nc4cc(Cl)ccc4[nH]3)c2N2CCC(N)CC2)c1 [Compound 2-4, 4-(4-aminopiperidin-1-yl)-3-(5-chloro-1H-1,3-benzodiazol-2-yl)-5-(3-fluoro-5-methylphenyl)pyridin-2-ol] | > 8.00
10 | COc1ncc(-c2cc(C)cc(C#N)c2)c(N2CCC(N)CC2)c1-c1nc2cc(Cl)ccc2[nH]1 [Compound 2-6, 3-[4-(4-aminopiperidin-1-yl)-5-(5-chloro-1H-1,3-benzodiazol-2-yl)-6-methoxypyridin-3-yl]-5-methylbenzonitrile] | 7.00 to 8.00
11 | Cc1cc(F)cc(-c2cnc(O)c(-c3nc4cc(F)c(F)cc4[nH]3)c2N2CCC(N)CC2)c1 [Compound 2-7, 4-(4-aminopiperidin-1-yl)-3-(5,6-difluoro-1H-1,3-benzodiazol-2-yl)-5-(3-fluoro-5-methylphenyl)pyridin-2-ol] | 7.00 to 8.00
12 | COc1ncc(-c2cc(C)cc(F)c2)c(N2CCC(N)CC2)c1-c1nc2cc(C#N)ccc2[nH]1 [Compound 2-8, 2-[4-(4-aminopiperidin-1-yl)-5-(3-fluoro-5-methylphenyl)-2-methoxypyridin-3-yl]-1H-1,3-benzodiazole-5-carbonitrile] | > 8.00
13 | COc1ncc(-c2cc(C)cc(F)c2)c(N2CCC(N)CC2)c1-c1nc2cc(Cl)ncc2[nH]1 [Compound 2-9] | > 8.00
14 | Cc1cc(F)cc(-c2cnc(O)c(-c3nc4cc(F)ccc4[nH]3)c2N2CCC(N)CC2)c1 [Compound 2-10, 4-(4-aminopiperidin-1-yl)-3-(5-fluoro-1H-1,3-benzodiazol-2-yl)-5-(3-fluoro-5-methylphenyl)pyridin-2-ol] | 7.00 to 8.00
15 | Cc1cc(F)cc(-c2cnc(Cl)c(-c3nc4cc(F)ccc4[nH]3)c2N2CCC(N)CC2)c1 [Compound 2-11, 1-[2-chloro-3-(5-fluoro-1H-1,3-benzodiazol-2-yl)-5-(3-fluoro-5-methylphenyl)pyridin-4-yl]piperidin-4-amine] | > 8.00
16 | COc1ncc(-c2cc(C)cc(Cl)c2)c(N2CCC(N)CC2)c1/C=N/OC(C)(C)C [Compound 2-12, 1-{3-[(1E)-[(tert-butoxy)imino]methyl]-5-(3-chloro-5-methylphenyl)-2-methoxypyridin-4-yl}piperidin-4-amine] | < 7.00
17 | COc1ncc(-c2cc(C)cc(F)c2)c(N2CCC(N)CC2)c1-c1nc2nc(Cl)ccc2[nH]1 [Compound 2-13, 1-(3-{5-chloro-1H-imidazo[4,5-b]pyridin-2-yl}-5-(3-fluoro-5-methylphenyl)-2-methoxypyridin-4-yl)piperidin-4-amine] | > 8.00
18 | COc1ncc(-c2cc(F)cc(F)c2)c(N2CCC(N)CC2)c1-c1nc2cc(Cl)ccc2[nH]1 [Compound 2-14, 1-[3-(5-chloro-1H-1,3-benzodiazol-2-yl)-5-(3,5-difluorophenyl)-2-methoxypyridin-4-yl]piperidin-4-amine] | 7.00 to 8.00

Results, then the molecule that gave them:

Row | pEC50 | SMILES
19 | > 8.00 | Cc1cc(F)cc(-c2cnnc(-c3cc4cc(Cl)ccc4[nH]3)c2N2CCC(N)CC2)c1 [Compound 3-1, 1-[3-(5-chloro-1H-indol-2-yl)-5-(3-fluoro-5-methylphenyl)pyridazin-4-yl]piperidin-4-amine]
20 | > 8.00 | Cc1cc(F)cc(-c2cnnc(-c3cc4ccc(Cl)cc4[nH]3)c2N2CCC(N)CC2)c1 [Compound 3-2, 1-[3-(6-chloro-1H-indol-2-yl)-5-(3-fluoro-5-methylphenyl)pyridazin-4-yl]piperidin-4-amine]
21 | > 8.00 | Cc1cc(F)cc(-c2cnnc(-c3nc4cc(Cl)ccc4[nH]3)c2N2CCC(N)CC2)c1 [Compound 3-3, 1-[3-(5-chloro-1H-1,3-benzodiazol-2-yl)-5-(3-fluoro-5-methylphenyl)pyridazin-4-yl]piperidin-4-amine]
22 | > 8.00 | Cc1cc(F)cc(-c2cnnc(-c3cc4ccc(F)cc4[nH]3)c2N2CCC(N)CC2)c1 [Compound 3-4, 1-[3-(6-fluoro-1H-indol-2-yl)-5-(3-fluoro-5-methylphenyl)pyridazin-4-yl]piperidin-4-amine]
23 | > 8.00 | COc1ccc2cc(-c3nncc(-c4cc(C)cc(F)c4)c3N3CCC(N)CC3)[nH]c2c1 [Compound 3-5, 1-[5-(3-fluoro-5-methylphenyl)-3-(6-methoxy-1H-indol-2-yl)pyridazin-4-yl]piperidin-4-amine]
24 | > 8.00 | Cc1cc(F)cc(-c2cnnc(-c3cc4c(Cl)cccc4[nH]3)c2N2CCC(N)CC2)c1 [Compound 3-6, 1-[3-(4-chloro-1H-indol-2-yl)-5-(3-fluoro-5-methylphenyl)pyridazin-4-yl]piperidin-4-amine]
25 | > 8.00 | Cc1cc(F)cc(-c2cnnc(-c3cc4cccc(Cl)c4[nH]3)c2N2CCC(N)CC2)c1 [Compound 3-7, 1-[3-(7-chloro-1H-indol-2-yl)-5-(3-fluoro-5-methylphenyl)pyridazin-4-yl]piperidin-4-amine]
26 | > 8.00 | Cc1cc(F)cc(-c2cnnc(-c3cc4cc(F)ccc4[nH]3)c2N2CCC(N)CC2)c1 [Compound 3-8, 1-[3-(5-fluoro-1H-indol-2-yl)-5-(3-fluoro-5-methylphenyl)pyridazin-4-yl]piperidin-4-amine]
27 | > 8.00 | COc1ccc2[nH]c(-c3nncc(-c4cc(C)cc(F)c4)c3N3CCC(N)CC3)cc2c1 [Compound 3-9, 1-[5-(3-fluoro-5-methylphenyl)-3-(5-methoxy-1H-indol-2-yl)pyridazin-4-yl]piperidin-4-amine]
28 | > 8.00 | COc1ccc2[nH]c(-c3nncc(-c4cc(C)cc(F)c4)c3N3CCC(N)CC3)nc2c1 [Compound 3-10, 1-[5-(3-fluoro-5-methylphenyl)-3-(5-methoxy-1H-1,3-benzodiazol-2-yl)pyridazin-4-yl]piperidin-4-amine]
29 | > 8.00 | Cc1cc(F)cc(-c2cnnc(-c3cc4ccc(C#N)cc4[nH]3)c2N2CCC(N)CC2)c1 [Compound 3-12, 2-[4-(4-aminopiperidin-1-yl)-5-(3-fluoro-5-methylphenyl)pyridazin-3-yl]-1H-indole-6-carbonitrile]
